Data from patent US8937078B2, “Quinazolinones as prolyl hydroxylase inhibitors” (Janssen Pharmaceutica NV, priority 2009, dated 2015).
Entries after “also recorded” stand apart in the source; their conditions may differ. Blank lines part the entries; values can stand above or below the compound they belong to.

Key:
human PHD2 (PHD2181-417) = target: T1, human PHD2 (PHD2181-417) (Homo sapiens, UniProt Q9GZT9); test: PHD enzymatic assay ([14C]-succinic acid production); format: biochemical; conditions: PHD2181-417, HIF-1α peptide 10 μM, average of results; read-out: Enzyme pIC50 (converted)
T1 construct: Smt (SUMO) tag (cleaved yes); made in house; host or cells: E. coli BL21 (pBAD vector)
T1 sequence (Q9GZT9 181-417): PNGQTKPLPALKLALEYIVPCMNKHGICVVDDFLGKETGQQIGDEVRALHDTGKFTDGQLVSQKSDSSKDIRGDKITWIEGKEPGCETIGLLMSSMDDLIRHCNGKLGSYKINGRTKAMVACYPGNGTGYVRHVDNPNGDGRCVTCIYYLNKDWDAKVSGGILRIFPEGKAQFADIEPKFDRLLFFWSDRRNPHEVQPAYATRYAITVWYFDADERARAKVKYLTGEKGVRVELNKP
Summary of the method: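 Activity measured as [14C]-succinic acid formed from [5-14C]-2-oxoglutarate over 10 minutes, with peptide substrate at 10 μM, in Tris-HCl pH 7.5 buffer containing catalase, DTT and ascorbate. Unreacted oxoglutarate removed by DNP derivatisation; supernatant beta-counted.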

Hep-3B cells = test: Cellular assay: erythropoietin secretion in Hep-3B cells; format: cell-based, human; conditions: Homo sapiens, Hep3B, 100 μM compound, 24 hours, percent of EPO secretion relative to assay control compound 7-[(4-Chloro-phenyl)-(5-methyl-isoxazol-3-ylamino)-methyl]-quinolin-8-ol, read-out: Cellular % EPO Stimulation
Summary of the method: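 Hep-3B cells in DMEM with 10% FBS, treated 24 h after plating with compounds at 100 μM final for a further 24 h. Secreted EPO in supernatant measured by MSD electrochemiluminescence sandwich immunoassay with anti-EPO detection antibody.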

[1] = Canine study, histological analysis (single dose escalation then repeat dose); format: in vivo; set-up: key to Histology: Stomach / Histology: Testis/Epididymis / Histology: Bone Marrow / Histology: Lung / Histology: Heart / Histology: Test/Epididymis / Histology: Kidney: NSL: No Significant Lesion; conditions: oral by stomach tube
Procedure: Various animal models are assessed for histological analysis. In one example, a canine study was used to assess the effect of 1-[6-(2,6-dimethyl-phenoxy)-7-fluoro-4-oxo-3,4-dihydro-quinazolin-2-yl]-1H-pyrazole-4-carboxylic acid when administered orally by stomach tube in a Single Dose Escalation (SDE) phase, and then subsequently for up to 5 days during the Repeat Dose (RD) phase.

- IC50 (human PHD2 (PHD2181-417)): 25.1 nM
- Histology: Bone Marrow ([1]; 10 mg/kg/day-1001 (Male)): NSL
- Histology: Heart ([1]; 10 mg/kg/day-1001 (Male)): NSL
- Histology: Liver ([1]; 10 mg/kg/day-1001 (Male)): Slight, acute portal inflammation
- Histology: Lung ([1]; 10 mg/kg/day-1001 (Male)): NSL
- Histology: Stomach ([1]; 10 mg/kg/day-1001 (Male)): NSL
- Histology: Testis/Epididymis ([1]; 10 mg/kg/day-1001 (Male)): NSL
- Histology: Bone Marrow ([1]; 10 mg/kg/day-1501 (female)): NSL
- Histology: Heart ([1]; 10 mg/kg/day-1501 (female)): NSL
- Histology: Kidney ([1]; 10 mg/kg/day-1501 (female)): NSL
- Histology: Liver ([1]; 10 mg/kg/day-1501 (female)): Slight, acute portal inflammation
- Histology: Lung ([1]; 10 mg/kg/day-1501 (female)): NSL
- Histology: Stomach ([1]; 10 mg/kg/day-1501 (female)): NSL
- Histology: Bone Marrow ([1]; 45 mg/kg/day-2001 (Male)): BSL
- Histology: Heart ([1]; 45 mg/kg/day-2001 (Male)): NSL
- Histology: Liver ([1]; 45 mg/kg/day-2001 (Male)): Mild, acute central-lobular inflammation
- Histology: Lung ([1]; 45 mg/kg/day-2001 (Male)): NSL
- Histology: Stomach ([1]; 45 mg/kg/day-2001 (Male)): NSL
- Histology: Test/Epididymis ([1]; 45 mg/kg/day-2001 (Male)): NSL
- Histology: Bone Marrow ([1]; 45 mg/kg/day-2501(female)): NSL
- Histology: Lung ([1]; 45 mg/kg/day-2501(female)): NSL
- Histology: Stomach ([1]; 45 mg/kg/day-2501(female)): NSL
Structure (SMILES): Cc1cccc(C)c1Oc1cc2c(=O)[nH]c(-n3cc(C(=O)O)cn3)nc2cc1F [Example 51, 1-[6-(2,6-Dimethyl-phenoxy)-7-fluoro-4-oxo-3,4-dihydro-quinazolin-2-yl]-1H-pyrazole-4-carboxylic acid]
- Emax at 100 µM (Hep-3B cells): 100%
- Histology: Kidney ([1]; 10 mg/kg/day-1001 (Male)): Slight, bilateral, acute multi-focal; also recorded: Slight, pelvic mineral deposition (right
- Histology: Spleen ([1]; 10 mg/kg/day-1001 (Male)): Mild EMH, with mild, increased; also recorded: Slight, intra-macrophage brown pigment
- Histology: Spleen ([1]; 10 mg/kg/day-1501 (female)): Mild EMH, with mild, increased; also recorded: Slight, intra-macrophage brown
- Histology: Kidney ([1]; 45 mg/kg/day-2001 (Male)): Slight, bilateral, acute multi-focal; also recorded: Multiple cysts with slight interstitial; also recorded: Slight, renal papillary mineralization
- Histology: Spleen ([1]; 45 mg/kg/day-2001 (Male)): Mild EMH; also recorded: Mild, increased megkaryocytes; also recorded: Slight intra-macrophage brown pigment
- Histology: Kidney ([1]; 45 mg/kg/day-2501(female)): Slight, bilateral, acute-multi-focal; also recorded: Slight tubular vacuolization
- Histology: Liver ([1]; 45 mg/kg/day-2501(female)): Mild bile duct hyperplasia; also recorded: Multifocal portal tract thrombosis; also recorded: Slight, Kupffer cell brown pigment
- Histology: Spleen ([1]; 45 mg/kg/day-2501(female)): Mild EMH; also recorded: Mild, increased megkaryocytes; also recorded: Slight intra-macrophage brown

- IC50 (human PHD2 (PHD2181-417)): 20 nM
Structure (SMILES): O=C(O)c1cnn(-c2nc3cc(F)c(Oc4cccc5ccccc45)cc3c(=O)[nH]2)c1 [Example 57, 1-[7-Fluoro-6-(naphthalen-1-yloxy)-4-oxo-3,4-dihydro-quinazolin-2-yl]-1H-pyrazole-4-carboxylic acid]
- Emax at 100 µM (Hep-3B cells): 135%

- IC50 (human PHD2 (PHD2181-417)): 20 nM
Structure (SMILES): O=C(O)c1cnn(-c2nc3cc(F)c(Oc4cccc(C(F)(F)F)c4)cc3c(=O)[nH]2)c1 [Example 95, 1-[7-fluoro-4-oxo-6-(3-trifluoromethyl-phenoxy)-3,4-dihydro-quinazolin-2-yl]-1H-pyrazole-4-carboxylic acid]
- Emax at 100 µM (Hep-3B cells): 61%

- IC50 (human PHD2 (PHD2181-417)): 31.6 nM
Structure (SMILES): O=C(O)c1cnn(-c2nc3ccc(-c4ccccc4)cc3c(=O)[nH]2)c1 [Example 106, 1-(4-oxo-6-phenyl-3,4-dihydro-quinazolin-2-yl)-1H-pyrazole-4-carboxylic acid]
- Emax at 100 µM (Hep-3B cells): 129%

- IC50 (human PHD2 (PHD2181-417)): 39.8 nM
Structure (SMILES): O=C(O)c1cnn(-c2nc3ccc(F)cc3c(=O)[nH]2)c1 [Example 4, 1-(6-Fluoro-4-oxo-3,4-dihydro-quinazolin-2-yl)-1H-pyrazole-4-carboxylic acid]
- Emax at 100 µM (Hep-3B cells): 15%
